Our source for the TGI and GI50 values is PubChem BioAssay (NCI).

Values joined by “and” are separate entries in the source; they are usually repeats but may differ in a detail not shown here. Equal values may be shown once.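 Five concentrations, 48 hours, 96-well plates. At the GI50, growth is halved. TGI: concentration producing complete growth inhibition.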 Some results are limits rather than exact numbers.

Some test systems named below: DMS 114 small cell lung; DMS 273 small cell lung; LXFL 529 NSCLC; M19-MEL melanoma; RXF-631 renal; XF 498 CNS; HOP-18 NSCLC; KM20L2 colon; MDA-N; P388/ADR leukemia; SN12K1 renal.
Holding throughout (test): NCI tumour cell line growth inhibition, 48 h

Regarding `COc1ccc(OC)c(/C=N/N=C(\N)NO)c1`, the TGI is greater than 100 µM in the assay on DMS 114 small cell lung; greater than 100 µM in the assay with DMS 273 small cell lung; greater than 100 µM with LXFL 529 NSCLC; greater than 100 µM in the assay with M19-MEL melanoma; greater than 100 µM with RXF-631 renal; 58.3 µM in the assay with XF 498 CNS.

For the molecule `Cc1cc(C)c(-c2noc(-c3ccc(Cl)cc3)c2C2=NCCCN2)c(C)c1`, the TGI with HOP-18 NSCLC was greater than 100 µM; with KM20L2 colon it was 70.6 µM; with LXFL 529 NSCLC, greater than 100 µM; with M19-MEL melanoma, greater than 100 µM; with RXF-631 renal, greater than 100 µM; in the assay with XF 498 CNS it was 54.8 µM.

As for `Nc1c(Cl)ncnc1NCCCCCCCCCCCCNc1ncnc(Cl)c1N`, the TGI was 2.49 µM with DMS 114 small cell lung; 10.2 µM in the assay on DMS 273 small cell lung; 83.1 µM with HOP-18 NSCLC; greater than 100 µM in the assay on KM20L2 colon; 20.5 µM in the assay with LXFL 529 NSCLC; 18.8 µM in the assay with M19-MEL melanoma. Moreover, the TGI with RXF-631 renal amounted to 9.72 µM; in the assay on XF 498 CNS it was 3.02 µM.

In the case of `O=C(Nc1ccc(Cl)cc1Cl)OC(Cn1cncn1)c1ccc(Cl)cc1Cl` (configuration not stated), the TGI with DMS 114 small cell lung was 29.8 µM; in the assay with DMS 273 small cell lung it was 31.4 µM; with HOP-18 NSCLC, 41.5 µM; in the assay with KM20L2 colon it was 30.3 µM; with LXFL 529 NSCLC, 30.6 µM; with M19-MEL melanoma, 30.8 µM. In addition, the figures for the TGI in the assay with RXF-631 renal and with XF 498 CNS were 33.2 µM and 27.9 µM, respectively.

Consider `COC(=O)[C@@]12CC(C(C)C)[C@H]3CC(C(=O)C=C1OC)[C@H]32` (some centres not stated), for which the TGI in the assay on DMS 114 small cell lung, in the assay on DMS 273 small cell lung, with HOP-18 NSCLC, in the assay on KM20L2 colon, with LXFL 529 NSCLC and in the assay on M19-MEL melanoma was greater than 100 µM each time. The TGI with RXF-631 renal and in the assay on XF 498 CNS was greater than 100 µM throughout.

`CNS(=O)(=O)NNS(=O)(=O)c1ccc(OC)cc1`: the TGI in the assay with DMS 114 small cell lung, with DMS 273 small cell lung, in the assay with KM20L2 colon, in the assay on LXFL 529 NSCLC, with M19-MEL melanoma and in the assay with RXF-631 renal was greater than 100 µM throughout. Further, the TGI with XF 498 CNS is greater than 100 µM.

On to `COC(=O)C1C(=O)O[C@@H](c2cc(OC)c(OC)cc2OC)C1C(=O)OC` (mixture of isomers), for which the TGI with DMS 114 small cell lung, in the assay with DMS 273 small cell lung, in the assay with KM20L2 colon, in the assay on LXFL 529 NSCLC, in the assay on M19-MEL melanoma and in the assay on RXF-631 renal was greater than 100 µM throughout. Besides, the TGI in the assay with XF 498 CNS was greater than 100 µM.

Turning to `CC(C)CCCCCCCCCCCCC(=O)NCC(=O)NC1C(O)C(O)C(Nc2ncnc3nc[nH]c23)OC1C(O)CO` (configuration not stated), the GI50 in the assay on DMS 114 small cell lung was 0.005 µM; with KM20L2 colon it was 0.005 µM; in the assay on M19-MEL melanoma it was 0.005 µM; in the assay with MDA-N, less than 0.01 nM; in the assay with P388/ADR leukemia, 0.005 µM; with SN12K1 renal, 0.00646 µM. Also, the TGI in the assay with DMS 114 small cell lung was 0.0278 µM and 0.00687 µM; with DMS 273 small cell lung, 0.00174 µM; in the assay on HOP-18 NSCLC, 0.00108 µM; in the assay with KM20L2 colon, 0.0222 µM and 0.0138 µM; in the assay with M19-MEL melanoma, 0.0409 µM and 0.0156 µM; in the assay with SN12K1 renal it was 0.332 µM and 0.223 µM.

In the case of `O=C1/C(=C/c2ccc(Cl)cc2)CNC/C1=C\c1ccc(Cl)cc1`, the TGI in the assay with DMS 273 small cell lung is 5.78 µM; in the assay with HOP-18 NSCLC, 18 µM; with LXFL 529 NSCLC, 2.4 µM; in the assay on M19-MEL melanoma, 4.81 µM; in the assay on MDA-N, 16.1 µM; with RXF-631 renal it was 12.5 µM. The molecule also yielded a TGI in the assay with XF 498 CNS of 7.28 µM.

On to `CCOc1ccccc1N=Nc1c(-c2ccccc2)nn(C(=O)CC(=O)Nc2cccc(C)c2)c1-c1ccccc1`, for which the TGI in the assay on DMS 114 small cell lung, in the assay with DMS 273 small cell lung, in the assay on HOP-18 NSCLC, in the assay on KM20L2 colon, in the assay on LXFL 529 NSCLC and in the assay on M19-MEL melanoma was greater than 100 µM throughout. The TGI with RXF-631 renal and with XF 498 CNS was greater than 100 µM each time.
